Laboratory results: the NIST ThermoML archive (doi:10.1021/je0501078)

Assay: molar heat capacity at saturation pressure

O=C1CCCCC1C1(O)CCCCC1 (configuration not stated) [1'-hydroxy-[1,1'-bicyclohexyl]-2-one]
Conditions | molar heat capacity [J/K/mol]
118.84 K, Crystal | 115.6
120.97 K, Crystal | 117
123.07 K, Crystal | 118.7
125.14 K, Crystal | 120.4
127.19 K, Crystal | 122.1
129.21 K, Crystal | 123.6
131.21 K, Crystal | 125.2
133.17 K, Crystal | 126.7
135.12 K, Crystal | 128.2
137.05 K, Crystal | 129.6
138.96 K, Crystal | 131.3
141 K, Crystal | 132.8
143.17 K, Crystal | 134.4
145.31 K, Crystal | 136.2
147.42 K, Crystal | 137.7
149.52 K, Crystal | 139.4
149.69 K, Crystal | 139.5
151.77 K, Crystal | 141.3
153.83 K, Crystal | 142.8
155.94 K, Crystal | 144.7
158.11 K, Crystal | 146.2
160.26 K, Crystal | 148.1
162.4 K, Crystal | 149.6
164.58 K, Crystal | 151.5
166.82 K, Crystal | 153.1
169.05 K, Crystal | 154.8
171.25 K, Crystal | 156.7
173.43 K, Crystal | 158.6
175.59 K, Crystal | 160.1
177.74 K, Crystal | 162
179.87 K, Crystal | 163.8
181.98 K, Crystal | 165.4
184.22 K, Crystal | 167.4
186.58 K, Crystal | 169.1
188.92 K, Crystal | 171.2
191.24 K, Crystal | 172.9
193.62 K, Crystal | 174.9
196.06 K, Crystal | 176.6
198.49 K, Crystal | 179
200.89 K, Crystal | 180.8
203.28 K, Crystal | 182.7
205.65 K, Crystal | 184.8
208.08 K, Crystal | 186.7
210.57 K, Crystal | 188.6
213.04 K, Crystal | 191
215.63 K, Crystal | 192.9
218.36 K, Crystal | 195.1
220.54 K, Crystal | 197.1
223.28 K, Crystal | 199.4
226 K, Crystal | 201.5
228.71 K, Crystal | 203.8
231.37 K, Crystal | 206.2
234.03 K, Crystal | 209.2
236.67 K, Crystal | 210.8
239.45 K, Crystal | 214
242.37 K, Crystal | 216.3
245.3 K, Crystal | 218.9
248.2 K, Crystal | 221.7
251.09 K, Crystal | 224
253.97 K, Crystal | 227.2
256.81 K, Crystal | 229.6
259.61 K, Crystal | 232.7
262.37 K, Crystal | 235.2
265.1 K, Crystal | 238.8
267.8 K, Crystal | 241.5
270.46 K, Crystal | 244.1
273.22 K, Crystal | 247.9
274.83 K, Crystal | 249.2
276.1 K, Crystal | 250.8
277.41 K, Crystal | 252.4
278.95 K, Crystal | 254.3
279.97 K, Crystal | 255.8
281.77 K, Crystal | 257.8
282.51 K, Crystal | 258.4
284.57 K, Crystal | 261.4
285.02 K, Crystal | 262
287.35 K, Crystal | 264.2
287.51 K, Crystal | 264.9
289.97 K, Crystal | 267.6
290.11 K, Crystal | 268.6
292.4 K, Crystal | 271.5
292.83 K, Crystal | 271.4
294.18 K, Crystal | 273.5
295.66 K, Crystal | 275.3
308.34 K, Liquid | 351
310.04 K, Liquid | 351.5
311.73 K, Liquid | 353.4
